Assay: recombinant barcode read abundance after kanamycin selection (control-corrected) (log10(CPM+1)); higher = more efficient recombination; sequences stand for … in AGTGCAGAGAAAATCGGCCAGTTTTCTCTGCCTGCAGTCCGCATGCCGT…AGATTTATGCAGCGGACTGCCTTTCTCCCAAAGTGATAAACCGGACAGTATCATGGACCGGTTTTCCCGGTAATCCGTATTTGCAAGGTTGGTTTCACT; site = the 11-nt target
In short: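 Recombination efficiency was calculated from barcode counts at recombinant junctions, normalized to counts per million, averaged and corrected by the control. Each value is given as log10(CPM+1). The constructs were Gibson-cloned oligos (promoter, target, barcode, J23119-driven first 104 bridge RNA bases) in a vector with the remaining 73 bp and a T7-inducible recombinase, co-electroporated into E. coli with a donor plasmid and plated in duplicate on chloramphenicol/ampicillin LB agar (control) or chloramphenicol/ampicillin/kanamycin with 0.1 mM IPTG.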
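Further: IS621 recombinase and bridge RNA in Escherichia coli cells.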

TATATATCTTGGGTTCTAACCTGTTGCAT (site AGGTGTCCTTC)
recombinant barcode read abundance (log10): 0.112

TATATATCTTGGGTTCTAACCTGTTGCAT (site TATATATCTAT)
recombinant barcode read abundance (log10): 0.23

TATCAGACTTGGGTTCTAACCTGTTGCAG (site TATCAGACTCT)
recombinant barcode read abundance (log10): 1.45

TATCAGACTTGGGTTCTAACCTGTTGCAG (site TCTCAGGCTCT)
recombinant barcode read abundance (log10): 0.121

TATCAGCCTTGGGTTCTAACCTGTTGCTT (site CATCAGCCTAC)
recombinant barcode read abundance (log10): 0.0522

TATCAGCCTTGGGTTCTAACCTGTTGCTT (site TATCAGCCTAA)
recombinant barcode read abundance (log10): 0.0238

TATCCCTCTTGGGTTCTAACCTGTTGCCT (site ATCAAGCCTCT)
recombinant barcode read abundance (log10): 0.18

TATCCCTCTTGGGTTCTAACCTGTTGCCT (site TATCCCTCTAG)
recombinant barcode read abundance (log10): 1.14

TATCCGACTTGGGTTCTAACCTGTTGCCA (site TATCCGACTAG)
recombinant barcode read abundance (log10): 0.56

TATCCGACTTGGGTTCTAACCTGTTGCCA (site TATCCGACTCG)
recombinant barcode read abundance (log10): 0.142

TATCCGACTTGGGTTCTAACCTGTTGCCA (site TATCCGACTGG)
recombinant barcode read abundance (log10): 0.0584

TATCCGACTTGGGTTCTAACCTGTTGCCA (site TATCCGACTTG)
recombinant barcode read abundance (log10): 0.135

TATGGAGCTTGGGTTCTAACCTGTTGCTG (site AATGGGGCTCA)
recombinant barcode read abundance (log10): 0.523

TATGGAGCTTGGGTTCTAACCTGTTGCTG (site TATGGAGCTCA)
recombinant barcode read abundance (log10): 1.58

TATGGGACTTGGGTTCTAACCTGTTGCCT (site TATCGCACTAG)
recombinant barcode read abundance (log10): 0.0772

TATGGGACTTGGGTTCTAACCTGTTGCCT (site TATGGGACTAG)
recombinant barcode read abundance (log10): 1.25

TATGGTACTTGGGTTCTAACCTGTTGCGT (site GGGATACCTTA)
recombinant barcode read abundance (log10): 0.0757

TATGGTACTTGGGTTCTAACCTGTTGCGT (site TATGGTACTAC)
recombinant barcode read abundance (log10): 2.22

TATGGTTCTTGGGTTCTAACCTGTTGCCT (site TATGCTTCTAA)
recombinant barcode read abundance (log10): 0.0349

TATGGTTCTTGGGTTCTAACCTGTTGCCT (site TATGGTTCTAG)
recombinant barcode read abundance (log10): 0.502

TATTAGACTTGGGTTCTAACCTGTTGCCT (site AATTAGACTAG)
recombinant barcode read abundance (log10): 0.158

TATTAGACTTGGGTTCTAACCTGTTGCCT (site CATTAGACTAG)
recombinant barcode read abundance (log10): 0.13

TATTAGACTTGGGTTCTAACCTGTTGCCT (site GATTAGACTAG)
recombinant barcode read abundance (log10): 0.209

TATTAGACTTGGGTTCTAACCTGTTGCCT (site TATTAGACTAG)
recombinant barcode read abundance (log10): 0.225

TATTCTACTTGGGTTCTAACCTGTTGCGT (site TATTCTACTAC)
recombinant barcode read abundance (log10): 0.0342

TATTCTACTTGGGTTCTAACCTGTTGCGT (site TATTCTACTCC)
recombinant barcode read abundance (log10): 0.365

TATTCTACTTGGGTTCTAACCTGTTGCGT (site TATTCTACTGC)
recombinant barcode read abundance (log10): 0.0341

TATTCTACTTGGGTTCTAACCTGTTGCGT (site TATTCTACTTC)
recombinant barcode read abundance (log10): 0.0549

TATTGGACTTGGGTTCTAACCTGTTGCAC (site TATTGGACTAT)
recombinant barcode read abundance (log10): 0.0463

TATTGGACTTGGGTTCTAACCTGTTGCAC (site TATTGGACTCT)
recombinant barcode read abundance (log10): 0.122

TATTGGACTTGGGTTCTAACCTGTTGCAC (site TATTGGACTGT)
recombinant barcode read abundance (log10): 0.0567

TATTGGACTTGGGTTCTAACCTGTTGCAC (site TATTGGACTTT)
recombinant barcode read abundance (log10): 0.0673

TATTGGACTTGGGTTCTAACCTGTTGCAT (site TATTGGACTAT)
recombinant barcode read abundance (log10): 0.421

TATTGGACTTGGGTTCTAACCTGTTGCAT (site TATTGGACTCT)
recombinant barcode read abundance (log10): 0.153

TATTGGACTTGGGTTCTAACCTGTTGCAT (site TATTGGACTGT)
recombinant barcode read abundance (log10): 0.155

TATTGGACTTGGGTTCTAACCTGTTGCAT (site TATTGGACTTT)
recombinant barcode read abundance (log10): 0.101

TATTGGACTTGGGTTCTAACCTGTTGCTT (site AATTGGACTAA)
recombinant barcode read abundance (log10): 0.0764

TATTGGACTTGGGTTCTAACCTGTTGCTT (site CATTGGACTAA)
recombinant barcode read abundance (log10): 0.0882

TATTGGACTTGGGTTCTAACCTGTTGCTT (site GATTGGACTAA)
recombinant barcode read abundance (log10): 0.0435

TATTGGACTTGGGTTCTAACCTGTTGCTT (site TATTGGACTAA)
recombinant barcode read abundance (log10): 0.141

TATTTGTCTTGGGTTCTAACCTGTTGCCA (site CACTTGTCTTG)
recombinant barcode read abundance (log10): 0.023

TATTTGTCTTGGGTTCTAACCTGTTGCCA (site TATTTGTCTTG)
recombinant barcode read abundance (log10): 0.156

TCAAGCCCTTGGGTTCTAACCTGTTGCAG (site CAGTCTACTAC)
recombinant barcode read abundance (log10): 0.011

TCAAGCCCTTGGGTTCTAACCTGTTGCAG (site TCAAGCCCTCT)
recombinant barcode read abundance (log10): 0.927

TCAAGGCCTTGGGTTCTAACCTGTTGCCT (site ACAAGGCCTAG)
recombinant barcode read abundance (log10): 0.147

TCAAGGCCTTGGGTTCTAACCTGTTGCCT (site CCAAGGCCTAG)
recombinant barcode read abundance (log10): 0.084

TCAAGGCCTTGGGTTCTAACCTGTTGCCT (site GCAAGGCCTAG)
recombinant barcode read abundance (log10): 0.106

TCAAGGCCTTGGGTTCTAACCTGTTGCCT (site TCAAGGCCTAG)
recombinant barcode read abundance (log10): 0.32

TCAATCCCTTGGGTTCTAACCTGTTGCCT (site TCAATCCCTAG)
recombinant barcode read abundance (log10): 0.326

TCAATCCCTTGGGTTCTAACCTGTTGCCT (site TCCATCCCTAG)
recombinant barcode read abundance (log10): 0.048

TCAATCCCTTGGGTTCTAACCTGTTGCCT (site TCGATCCCTAG)
recombinant barcode read abundance (log10): 0.173

TCAATCCCTTGGGTTCTAACCTGTTGCCT (site TCTATCCCTAG)
recombinant barcode read abundance (log10): 0.0124

TCACACACTTGGGTTCTAACCTGTTGCCT (site CTCAGACCTCA)
recombinant barcode read abundance (log10): 0.0319

TCACACACTTGGGTTCTAACCTGTTGCCT (site TCACACACTAG)
recombinant barcode read abundance (log10): 1.06

TCACCGCCTTGGGTTCTAACCTGTTGCCT (site ACACCGCCTAG)
recombinant barcode read abundance (log10): 0.75

TCACCGCCTTGGGTTCTAACCTGTTGCCT (site CCACCGCCTAG)
recombinant barcode read abundance (log10): 0.141

TCACCGCCTTGGGTTCTAACCTGTTGCCT (site GCACCGCCTAG)
recombinant barcode read abundance (log10): 0.0186

TCACCGCCTTGGGTTCTAACCTGTTGCCT (site TCACCGCCTAG)
recombinant barcode read abundance (log10): 0.172

TCACCTGCTTGGGTTCTAACCTGTTGCCT (site TCACATGCTAG)
recombinant barcode read abundance (log10): 0.0199

TCACCTGCTTGGGTTCTAACCTGTTGCCT (site TCACCTGCTAG)
recombinant barcode read abundance (log10): 0.961

TCACCTGCTTGGGTTCTAACCTGTTGCCT (site TCACGTGCTAG)
recombinant barcode read abundance (log10): 0.192

TCACCTGCTTGGGTTCTAACCTGTTGCCT (site TCACTTGCTAG)
recombinant barcode read abundance (log10): 0.0607

TCACGTCCTTGGGTTCTAACCTGTTGCGG (site TCACGTCCTCC)
recombinant barcode read abundance (log10): 1.3

TCACGTCCTTGGGTTCTAACCTGTTGCGG (site TTACGTCCTCC)
recombinant barcode read abundance (log10): 0.0483

TCACGTGCTTGGGTTCTAACCTGTTGCCT (site TCACATGCTAG)
recombinant barcode read abundance (log10): 0.0819

TCACGTGCTTGGGTTCTAACCTGTTGCCT (site TCACCTGCTAG)
recombinant barcode read abundance (log10): 0.105

TCACGTGCTTGGGTTCTAACCTGTTGCCT (site TCACGTGCTAG)
recombinant barcode read abundance (log10): 0.563

TCACGTGCTTGGGTTCTAACCTGTTGCCT (site TCACTTGCTAG)
recombinant barcode read abundance (log10): 0.121

TCACTCTCTTGGGTTCTAACCTGTTGCCT (site TAACTCTCTAG)
recombinant barcode read abundance (log10): 0.111

TCACTCTCTTGGGTTCTAACCTGTTGCCT (site TCACTCTCTAG)
recombinant barcode read abundance (log10): 1.22

TCACTCTCTTGGGTTCTAACCTGTTGCCT (site TGACTCTCTAG)
recombinant barcode read abundance (log10): 0.0273

TCACTCTCTTGGGTTCTAACCTGTTGCCT (site TTACTCTCTAG)
recombinant barcode read abundance (log10): 0.062

TCACTTCCTTGGGTTCTAACCTGTTGCCT (site TCACCTTCTAG)
recombinant barcode read abundance (log10): 0.121

TCACTTCCTTGGGTTCTAACCTGTTGCCT (site TCACTTCCTAG)
recombinant barcode read abundance (log10): 0.0238

TCACTTGCTTGGGTTCTAACCTGTTGCCT (site TCACATGCTAG)
recombinant barcode read abundance (log10): 0.0105

TCACTTGCTTGGGTTCTAACCTGTTGCCT (site TCACCTGCTAG)
recombinant barcode read abundance (log10): 0.0436

TCACTTGCTTGGGTTCTAACCTGTTGCCT (site TCACGTGCTAG)
recombinant barcode read abundance (log10): 0.177

TCACTTGCTTGGGTTCTAACCTGTTGCCT (site TCACTTGCTAG)
recombinant barcode read abundance (log10): 0.215

TCAGAAGCTTGGGTTCTAACCTGTTGCCG (site ATGAGGCCTTA)
recombinant barcode read abundance (log10): 0.022

TCAGAAGCTTGGGTTCTAACCTGTTGCCG (site TCAGAAGCTCG)
recombinant barcode read abundance (log10): 0.689

TCAGCCTCTTGGGTTCTAACCTGTTGCCT (site CTGTGTCCTCC)
recombinant barcode read abundance (log10): 0.11

TCAGCCTCTTGGGTTCTAACCTGTTGCCT (site TCAGCCTCTAG)
recombinant barcode read abundance (log10): 1.72

TCAGCGACTTGGGTTCTAACCTGTTGCCT (site TCAGCGACTAG)
recombinant barcode read abundance (log10): 0.481

TCAGCGACTTGGGTTCTAACCTGTTGCCT (site TCCGCGACTAG)
recombinant barcode read abundance (log10): 0.139

TCAGCGACTTGGGTTCTAACCTGTTGCCT (site TCGGCGACTAG)
recombinant barcode read abundance (log10): 0.27

TCAGCGACTTGGGTTCTAACCTGTTGCCT (site TCTGCGACTAG)
recombinant barcode read abundance (log10): 0.39
